Literature values, collected in patent US11207302B2, “1,2,5-oxadiazoles as inhibitors of indoleamine 2,3-dioxygenase” (Incyte Corporation, priority 2008, dated 2021).

Experiments:
LLC tumors = LLC tumors in C57Bl/6 mice, versus placebo
P815 tumor = details: pre-immunized immune-competent mice challenged with murine tumor cells

In the case of `Cn1cc(C[C@H](N)C(=O)O)c2ccccc21` [Example 1-MT, 1-methyl-tryptophan], the formation of tumors (LLC tumors) is given as “markedly delayed” and the growth of tumors (P815 tumor) is given as “inhibited”.
